Assays:
[1] = target: T1, Human recombinant estrogen receptor-α (ER-α) (Homo sapiens, UniProt P03372); experiment: Estrogen receptor binding assay, 3H-17β-estradiol displacement, ER-α; settings: 4° C. overnight
T1 construct: purchased PanVera Corporation (Madison, Wis.)
T1 sequence (P03372 1-595): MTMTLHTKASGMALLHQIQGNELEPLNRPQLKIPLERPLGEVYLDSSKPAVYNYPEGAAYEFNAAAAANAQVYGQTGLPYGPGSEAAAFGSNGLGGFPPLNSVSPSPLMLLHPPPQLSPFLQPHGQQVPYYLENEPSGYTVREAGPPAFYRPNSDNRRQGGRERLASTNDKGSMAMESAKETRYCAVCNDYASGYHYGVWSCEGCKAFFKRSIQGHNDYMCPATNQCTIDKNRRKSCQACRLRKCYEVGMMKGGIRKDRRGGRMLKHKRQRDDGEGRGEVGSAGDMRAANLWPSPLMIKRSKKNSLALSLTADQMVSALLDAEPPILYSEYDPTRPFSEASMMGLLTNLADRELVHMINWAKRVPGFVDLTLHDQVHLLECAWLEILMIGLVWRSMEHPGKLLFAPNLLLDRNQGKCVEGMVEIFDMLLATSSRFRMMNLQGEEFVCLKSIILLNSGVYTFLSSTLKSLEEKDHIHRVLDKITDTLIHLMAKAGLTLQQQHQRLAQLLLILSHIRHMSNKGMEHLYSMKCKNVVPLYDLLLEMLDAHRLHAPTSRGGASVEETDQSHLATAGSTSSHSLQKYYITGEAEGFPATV
Experimental: Human recombinant estrogen receptor-α (ER-α) and estrogen receptor-β (ER-β) were obtained from PanVera Corporation (Madison, Wis.) to conduct the binding assay. To measure the binding affinity of (2), various concentrations of (2) or 17β-estradiol were incubated with either ER-α or ER-β receptor in the presence of a fixed amount of ^3H-17β-estradiol at 4° C. overnight. At the end of the incubation, the free- and bound-3H-estradiol were separated following the instructions provided by the manufacturer using hydroxylapatite.

[2] = system: Chick Chorioallantoic Membrane (CAM); experiment: Chick chorioallantoic membrane (CAM) assay, blood vessel density; type: in vivo; settings: 12.5 μg per embryo in 0.5% methylcellulose, vs vehicle control
Experimental: A CAM assay was conducted as previously described (K. Amin, J. Li, and W-R. Chao, Cancer Biol. Ther. 2: 173-178, (2003). Briefly, fresh fertile eggs were incubated in a standard egg incubator at 37° C. for 3 days. On Day 3, eggs were cracked under sterile conditions and embryos were placed into 20×100 mm sterile plastic Petri dishes and cultivated at 37° C. in an embryo incubator with a water reservoir on the bottom shelf. Air was continuously bubbled into the water reservoir using a small pump so that the humidity in the incubator was kept constant. On Day 6, a sterile silicon “o” ring was placed on each CAM, and test compound (2) dissolved in 0.5% methylcellulose was delivered into each “o” ring under sterile conditions. Embryos were returned to the incubator. Control embryos received 10 μL of vehicle alone, while 12.5 μg of (2) was delivered to test embryos. On Day 8, embryos were removed from the incubator and kept at room temperature while blood vessel density was determined under each “o” ring using an image capturing system at a magnification of 160×.

[3] = system: HIF-1α protein in MDA-MB-231 human breast carcinoma cells; experiment: HIF-1α protein expression by immunoblotting, MDA-MB-231 cells; type: cell-based; settings: MDA-MB-231, normoxic and anoxic
Experimental: Hypoxia experiments were performed in either of two ways. To produce a very low ambient oxygen concentration (effectively anoxia), we used a protocol in which cells were incubated in a 5% CO2-air atmosphere at 37° C. overnight and then placed in aluminum gas-exchange chambers maintained at 37° C. (Laderoute K R et al. Mol Cell Biol 22: 2515-2523, (2002); Laderoute K R et al. Mol Cell Biol 24: 4128-4137, (2004)). The chambers containing the cells were then placed in a 37° C. circulating water bath and the original atmosphere was repeatedly exchanged with 5% CO2-95% N2 using a manifold equipped with a vacuum pump and a gas cylinder. Atmospheric oxygen partial pressure (pO2) values of less than or equal to 0.01% (relative to air at pO2 of about 21%) can be achieved inside the chambers using this system. Following various hypoxic exposures, the chambers were opened an anaerobic glove box (Bactron X, Sheldon Manufacturing Inc., Cornelius, Oreg.; attached to a cylinder containing 5% CO2-95% N2) to prepare cell lysates without significant reoxygenation. All manipulations of hypoxic cells were performed in the anaerobic glove box. Atmospheric oxygen levels in both the chambers and the glove box have been measured and calibrated using a polarographic oxygen electrode (Oxygen Sensors, Inc., Norristown, Pa.). […]
We used immunoblotting to evaluate the experiments. […] After spinning at 9,000×g for 5 min at 4° C., the protein concentrations of the supernatants were determined by using a bicinchoninic acid assay (Pierce Biotechnology). […] Primary antibody binding was detected and visualized by using the ECL Plus Western Blotting Detection System (Amersham Pharmacia Biotech) according to the supplier's instructions. HIF-1α protein was detected by using an anti-HIF-1α monoclonal antibody (Novus Biologicals, Cat. No. NB100-123; diluted 1:500) and a horseradish peroxidase-conjugated anti-mouse IgG secondary antibody (Santa Cruz Biotechnology, Cat. No. sc-2062; diluted 1:20,000). […]

In the case of `C[C@@H]1Cc2cc(O)ccc2C2CCC3(C)/C(=C/COCCN(C)C)CCC3C21` (stereo partly drawn) [Compound (2), (E)-3-Hydroxy-7α-methyl-21-[(2-dimethylamino)ethoxy]-19-norpregna-1,3,5(10),17(20)-tetraene], the “binding affinity (relative to non-radiolabeled estradiol, 50% displacement of 3H-estradiol)” value [1] is reported as 3, the blood vessel density [2] is reported as “drastically decreased the blood vessel density” and the HIF-1α protein expression [3] is reported as “potent inhibitor”.

— patent publication US20120252773A1, “Method and composition for inhibiting cell proliferation and angiogenesis” (priority 2005, published 2012)
